The values below come from patent publication US11234979B2, “Heteroaryl compounds as muscarinic M1 receptor positive allosteric modulators” (SUVEN LIFE SCIENCES LIMITED, priority 2017, dated 2022).

For data set [1], the system named is Male Wistar rats. Description: Object recognition task model. The conditions noted are these: rat, 3 mg/kg, p.o. It counts as in vivo. As to the method:
Object Recognition Task Model
The cognition enhancing properties of compounds of this invention were estimated by using this model.
Male Wistar rats (8-10 weeks old) were used as experimental animals. Four animals were housed in each cage. Animals were kept on 20% food deprivation from a day prior to experimentation. Water was provided ad libitum throughout the experiment. Animals were maintained on a 12 hours light/dark cycle in temperature and humidity controlled room. The experiment was carried out in a circular or square arena made up of acrylic. Rats were habituated to individual arenas for up to 1 hour in the absence of any objects on day 1.
One group of 12 rats received vehicle and another set of animals received compound of the formula (I), before the familiar (T1) and choice (T2) trials. During the familiarization phase, (T1), the rats were placed individually in the arena for 3 minutes, in which two identical objects (a1 and a2) were positioned 10 cm from the wall. 24 hours after T1, trial for long-term memory test was performed. The same rats were placed in the same arena as they were placed in T1 trial. During the choice phase (T2) rats were allowed to explore the arena for 3 minutes in presence of a copy of familiar object (a3) and one novel object (b). During the T1 and T2 trial, explorations of each object (defined as sniffing, licking, chewing or having moving vibrissae whilst directing the nose towards the object at a distance of less than 1 cm) were recorded using stopwatch.
T1 is the total time spent exploring the familiar objects (a1+a2).
T2 is the total time spent exploring the familiar object and novel object (a3+b).
The object recognition test was performed as described by Ennaceur, A., Delacour, J., 1988, A new one-trial test for neurobiological studies of memory in rats˜Behavioural data, Behav. Brain Res., 31, 47-59.

The subject of data set [2] is hippocampal theta oscillations. Description: Theta modulation in dorsal hippocampus of anesthetized rats in combination with donepezil. The conditions noted are these: anesthetized rat, Example 32 1 mg/kg. It counts as in vivo, Male Wistar rats. The text has this: Evaluation of Theta Modulation in Dorsal Hippocampus of Anesthetized Male Wistar
Male Wistar rats (240-320 g) were anesthetized by Intraperitoneal administration of urethane (1.2 to 1.5 g/kg) for implantation of a catheter in the left femoral vein. The animal was placed in a stereotaxic frame for implanting an electrode (stainless steel wire, Plastics One) into the dorsal hippocampus (AP: −3.8 mm; ML: +2.2 mm; DV: −2.5 mm; Paxinos and Watson, 2004). Bipolar stimulating electrode (untwisted stainless steel wires, separated by 0.75-1.0 mm at their tips, Plastics One) was implanted in the Nucleus Pontis Oralis (NPO; AP: −7.8 mm; ML: 1.8 mm; DV: −6.0 mm; Paxinos and Watson, 2004). Additionally one electrode was implanted into the cerebellum which served as a reference. Hippocampal θ rhythm was evoked via a 6-s electrical stimulation train (20-160 μA, 0.3-ms pulse duration, 250 Hz) delivered to the NPO at a rate of 0.01 trains/s with a Grass S88 stimulator and PSIU6 stimulus isolation unit (Grass Medical Instruments, Quincy, Mass.). EEG was recorded at a rate of 1000 Hz using Ponemah (Version 5.2) software and stored for off-line analysis using NeuroScore (Version 3.0). Baseline amplitude level was achieved by using the current required to elicit […] to 50% of the maximal amplitude under control conditions. After the stabilization period of one hour, baseline recording was done for 30 min followed by the treatment of vehicle or Example 32 (1 mg/kg, i.v.).
Power in the θ rhythm frequency in the stimulation period during the 30-min baseline period was calculated and the % changes in these measures post treatment were calculated. […] Statistical significance was considered at a p value less than 0.05.

Data set [3] can be described thus: Rodent brain penetration study. It counts as in vivo, Male Wistar rats. The conditions noted are these: male, Wistar, brain and plasma, po; rat, 3 mg/kg, p.o. @ 1.0 hr, brain-plasma ratio; read-out: Single dose Rat Brain Penetration (Cb/Cp). The procedure: Rodent Brain Penetration Study
Male Wistar rats (260±40 grams) were used as experimental animals. Three animals were housed in each cage. Animals were given water and food ad libitum throughout the experiment and maintained on a 12 hours light/dark cycle.
Brain penetration was determined in discrete manner in rats. One day prior to dosing day, male Wistar rats were acclimatized and randomly grouped according to their weight. At each time point (0.5, 1 and 2 hours) n=3 animals were used.
The test compounds were suitably preformulated and administered orally at (free base equivalent) 3 mg/kg. Blood samples were removed via cardiac puncture by using isoflurane anesthesia. The animals were sacrificed to collect brain tissue. Plasma was separated and brain samples were homogenized and stored frozen at −20° C. until analysis. The concentrations of the test compounds in plasma and brain were determined using LC-MS/MS method.
The test compounds were quantified in plasma and brain homogenate by qualified LC-MS/MS method using suitable extraction technique. The test compounds were quantified in the calibration range of 1-500 ng/mL in plasma and brain homogenate. Study samples were analyzed using calibration samples in the batch and quality control samples spread across the batch.

Data set [4] in a line: Rodent pharmacokinetic study. The conditions noted are these: male, Wistar, rat, plasma. It counts as in vivo, Male Wistar rats. The procedure:
Rodent Pharmacokinetic Study
Male Wistar rats (260±50 grams) were used as experimental animals. Animals were housed individually in polypropylene cage. Two days prior to study, male Wistar rats were anesthetized with isoflurane for surgical placement of jugular vein catheter. Rats were randomly divided for oral (3 mg/kg) and intravenous (i.v) (1 mg/kg) dosing (n=3/group) and fasted overnight before oral dosing (p.o.). However, rats allocated to intravenous (i.v.) dosing food and water was provided ad libitum.
At pre-determined point, blood was collected through jugular vein and replenished with an equivalent volume of normal saline. Collected blood was transferred into a labeled eppendorf tube containing 10 μL of heparin as an anticoagulant. Typically blood samples were collected at following time points: 0.08, 0.25, 0.5, 1, 2, 4, 6, 8, and 24 hours post dose. Blood was centrifuged at 4000 rpm for 10 minutes. Plasma was separated and stored frozen at −80° C. until analysis. The concentrations of the test compounds were quantified in plasma by qualified LC-MS/MS method using suitable extraction technique. The test compounds were quantified in the calibration range around 1-1000 ng/mL in plasma. Study samples were analyzed using calibration samples in the batch and quality control samples spread across the batch.
Pharmacokinetic parameters Cmax, AUCt, T1/2, clearance and bioavailability (F) were calculated by non-compartmental model using standard non-compartmental model by using Phoenix WinNonlin 6.0.2 or 6.0.3 version Software package.

The mark [5] stands for this setting: choice trial T2, 24 hours after T1.

The term AUC(0-t) denotes exposure summed from dosing to a finite time, without extrapolation to infinity. The low end stands for low exposure, the high end for high exposure. In general, half-life refers to the time needed for the level to fall by half in the phase considered. A low value points to rapid decline. Usually clearance stands for the volume of plasma or blood freed of the substance per unit of time. The term bioavailability denotes the share of a dose that reaches the circulation, judged against a reference dose that is usually intravenous. Low readings indicate little systemic uptake, high ones much systemic uptake. By Cmax is commonly meant the peak of the concentration-time curve. In the case of `Cn1cc(-c2ccc(Cc3cc(C(=O)N[C@H]4CCCC[C@@H]4O)n4ncccc34)cc2)cn1` [Example 32, N-(cis-1S,2S-2-Hydroxycyclohexyl)-5-[4-(1-methyl-1H-pyrazol-4-yl)-benzyl]-pyrrolo [1,2-b]pyridazine-7-carboxamide], in data set [1], the Inference result is reported as “Active”. In data set [1] (setting [5]), the “Exploration time mean ± S.E.M, Familiar object” value was found to be 11.64 ± 2.16 s and the “Exploration time mean ± S.E.M, Novel object” value came out at 19.81 ± 2.96 s. Also, in data set [2] (i.v. + donepezil 0.3 mg/kg), the “Mean area under the curve values (AUC) of θ power change, combination versus donepezil alone” value is listed as “significantly higher compared to donepezil alone” and the “effect on θ power, combination treatment versus donepezil alone” value is listed as “significantly higher than the donepezil alone”. In data set [2] (i.v. in combination with donepezil 0.3 mg/kg), the θ power levels result is given as “significant increase”. In addition, the Kp at 1 h in data set [3] was 0.15 ± 0.02. In data set [4] (iv, i.v. 1 mg/kg), this compound showed an AUC(0-t) of 3260 ± 802 ng·h/mL, a half-life of 3.2 ± 1.2 h and a clearance of 5.2 ± 1.4 mL/min/kg. Also, the bioavailability in data set [4] (oral 3 mg/kg vs i.v. 1 mg/kg, bioavailability) stood at 50 ± 17%. In data set [4] (oral 3 mg/kg), this compound had an AUC(0-t) of 4900 ± 1640 ng·h/mL, a Cmax of 650 ± 224 ng/mL and a half-life of 3.2 ± 0.4 h.
